The subject of one test is Miapaca2 3D spheroids. The experiment in a line: Assay of cell proliferation on Miapaca2 3D spheroids. The class given is cell-based. As to conditions: Homo sapiens, MIA PaCa-2, 120 h, CellTiter-Glo 3D, 5 days treatment. In outline: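 Miapaca2 spheroids (300 cells/well, formed by day 2) exposed 5 days at 37 °C to compound in 3-fold dilution series, 0.1% DMSO final. Viability by CellTiter-Glo 3D luminescence; survival % relative to day-2 and day-7 DMSO controls, IC50 from four-parameter logistic fit.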
Background: Cellular ATP, detected with luciferase, serves as a proxy for viable cell number.

Test [1] concerns the target Human full-length SHP2 recombinant protein (Homo sapiens (Human), UniProt Q06124). The experiment in a line: Assay of full-length SHP2 phosphatase activity. It is filed as biochemical. As to conditions: DiFMUP substrate, with activating peptide. In outline: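 Readout: DiFMUP hydrolysis fluorescence (355/460 nm) after 60 min at 25 °C, following 30 min RT preincubation of compound with peptide-activated full-length human SHP2. Controls were 1% DMSO with or without enzyme; IC50 by four-parameter logistic fit.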

Test [2] concerns pERK1/2 (Thr202/Tyr204) in Miapaca2 cells. The experiment in a line: Assay of intracellular pERK1/2 (Thr202/Tyr204) phosphorylation. The class given is cell-based. As to conditions: pERK1/2 (Thr202/Tyr204) HTRF. In outline: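 HTRF read-out (665/615 nm) of phospho-ERK1/2 Thr202/Tyr204 in lysates from Miapaca2 cells exposed for 2 h to 3-fold compound dilutions at 0.5% final DMSO. Controls: lysis buffer without cells and DMSO-treated cells; IC50 from four-parameter logistic fit.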
In general terms: TR-FRET usually uses a lanthanide donor and a delayed reading to cut background.

Structures are written as SMILES.

Sequence of Human full-length SHP2 recombinant protein (Q06124 whole entry): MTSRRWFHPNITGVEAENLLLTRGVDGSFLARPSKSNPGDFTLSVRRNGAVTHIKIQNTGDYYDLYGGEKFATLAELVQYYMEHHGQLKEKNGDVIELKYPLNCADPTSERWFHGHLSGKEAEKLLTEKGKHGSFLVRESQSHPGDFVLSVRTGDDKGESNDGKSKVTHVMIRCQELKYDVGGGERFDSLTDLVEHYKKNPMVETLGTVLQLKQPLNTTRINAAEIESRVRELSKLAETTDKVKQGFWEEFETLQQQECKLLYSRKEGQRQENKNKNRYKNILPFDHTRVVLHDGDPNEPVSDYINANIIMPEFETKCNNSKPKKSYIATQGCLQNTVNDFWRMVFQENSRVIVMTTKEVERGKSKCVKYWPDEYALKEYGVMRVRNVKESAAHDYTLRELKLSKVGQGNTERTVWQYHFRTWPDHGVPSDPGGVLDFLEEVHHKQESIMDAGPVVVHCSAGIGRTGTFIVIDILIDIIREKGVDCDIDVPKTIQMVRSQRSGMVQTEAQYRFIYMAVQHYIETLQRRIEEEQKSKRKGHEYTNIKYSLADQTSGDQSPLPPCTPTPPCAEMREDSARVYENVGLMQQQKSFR

`CCNC(=O)C#Cc1ccc2c(c1)[C@@H](N)C1(CCN(c3cnc(Sc4ccnc(N)c4Cl)c(N)n3)CC1)C2` [Compound 226]: the IC50 in the test with Miapaca2 3D spheroids came out at 0.4 nM; in test [1] it was 1 nM; in test [2] (Homo sapiens, MIA PaCa-2, 2 h) it was 2 nM.

In the case of `Cc1nc(N2CCC3(CC2)Cc2ccc(C#CC(=O)N(C)C)cc2[C@H]3N)cc(=O)n1-c1cccc(Cl)c1Cl` [Compound 194], the IC50 in the test on Miapaca2 3D spheroids was 36 nM; in test [1], 1 nM; in test [2] (Homo sapiens, MIA PaCa-2, 2 h), 18 nM.

For `COCC#Cc1ccc2c(c1)[C@@H](N)C1(CCN(c3ncc(Sc4ccnc(N)c4Cl)c4nncn34)CC1)C2` [Compound 147], the IC50 in the test on Miapaca2 3D spheroids came to 48 nM; in test [1], 3 nM; in test [2] (Homo sapiens, MIA PaCa-2, 2 h), 10 nM.

For `COCC#Cc1cc(F)c2c(c1)[C@@H](N)C1(CCN(c3nc(C)n(-c4cccc(Cl)c4Cl)c(=O)c3C)CC1)C2` [Compound 160], the IC50 with Miapaca2 3D spheroids is 41 nM; in test [1] it was 13 nM; in test [2] (Homo sapiens, MIA PaCa-2, 2 h), 56 nM.

Consider `CC#Cc1ccc2c(c1)[C@@H](N)C1(CCN(c3nc(C)n(-c4cccc(Cl)c4Cl)c(=O)c3F)CC1)C2` [Compound 170], for which the IC50 in the test with Miapaca2 3D spheroids worked out at 162 nM; in test [1] it was 9 nM; in test [2] (Homo sapiens, MIA PaCa-2, 2 h), 143 nM.

Take `COCC#Cc1ccc2c(c1)[C@@H](N)C1(CCN(c3ncc(Sc4ccnc(N)c4Cl)c4ncnn34)CC1)C2` [Compound 148]: the IC50 in the test with Miapaca2 3D spheroids is 47 nM; in test [1] it was 4 nM; in test [2] (Homo sapiens, MIA PaCa-2, 2 h) it was 13 nM.

As to `Nc1nccc(Sc2cnc(N3CCC4(CC3)Cc3ccc(C#CC(=O)O)cc3[C@H]4N)cn2)c1Cl` [Compound 279, (S)-3-(1-amino-1′-(5-((2-amino-3-chloropyridin-4-yl)thio)pyrazin-2-yl)-1,3-dihydrospiro[indene-2,4′-piperidin]-6-yl)propiolic acid], the 50% inhibitory concentration (IC50) stood at 42 nM with Miapaca2 3D spheroids; 0.4 nM in test [1]; 183 nM in test [2] (Homo sapiens, MIA PaCa-2, 2 h).

Regarding `CNC(=O)C#Cc1ccc2c(c1)[C@@H](N)C1(CCN(c3ncc(Sc4ccnc(N)c4Cl)nn3)CC1)C2` [Compound 250], the IC50 in the test with Miapaca2 3D spheroids amounted to 14 nM; in test [1], 1 nM; in test [2] (Homo sapiens, MIA PaCa-2, 2 h), 72 nM.

For the compound `CCNC(=O)C#Cc1ccc2c(c1)[C@@H](N)C1(CCN(c3ncc(Sc4ccnc(N)c4Cl)nc3C)CC1)O2` [Compound 259], the concentration for half-maximal inhibition (IC50) came to 5 nM in the test with Miapaca2 3D spheroids; 4 nM in test [1]; 23 nM in test [2] (Homo sapiens, MIA PaCa-2, 2 h).

In the case of `CCNC(=O)C#Cc1ccc2c(c1)[C@@H](N)C1(CCN(c3cnc(Sc4ccnc(N)c4Cl)cn3)CC1)O2` [Compound 293], the 50% inhibitory concentration (IC50) in the test on Miapaca2 3D spheroids was found to be 0.9 nM; in test [1] it was 1 nM; in test [2] (Homo sapiens, MIA PaCa-2, 2 h) it was 5 nM.

With `NC(=O)C#Cc1ccc2c(c1)[C@@H](N)C1(CCN(c3cnc(Sc4ccnc(N)c4Cl)cn3)CC1)C2` [Compound 270], the 50% inhibitory concentration (IC50) in the test on Miapaca2 3D spheroids came out at 0.6 nM; in test [1], 0.4 nM; in test [2] (Homo sapiens, MIA PaCa-2, 2 h), 2 nM.

On to `CNC(=O)C#Cc1ccc2c(c1)[C@@H](N)C1(CCN(c3ncc(Sc4ccnc(N)c4Cl)n4nccc34)CC1)C2` [Compound 177], for which the IC50 with Miapaca2 3D spheroids is 4 nM; in test [1], 2 nM; in test [2] (Homo sapiens, MIA PaCa-2, 2 h), 7 nM.

Consider `CCNC(=O)C#Cc1ccc2c(c1)[C@@H](N)C1(CCN(c3cnc(Sc4cc(N)nc(Cl)c4Cl)c(N)n3)CC1)C2` [Compound 255], for which the IC50 in the test on Miapaca2 3D spheroids worked out at 3 nM; in test [1], 3 nM; in test [2] (Homo sapiens, MIA PaCa-2, 2 h), 8 nM.

For `CCNC(=O)C#Cc1ccc2c(c1)[C@@H](N)C1(CCN(c3cnc(Sc4c(F)cnc(N)c4Cl)cn3)CC1)C2` [Compound 269], the IC50 with Miapaca2 3D spheroids came out at 3 nM; in test [1] it was 0.9 nM; in test [2] (Homo sapiens, MIA PaCa-2, 2 h), 7 nM.

With `CCNC(=O)C#Cc1ccc2c(c1)[C@@H](N)C1(CCN(c3cnc(Sc4cc(N)ncc4Cl)c(N)n3)CC1)C2` [Compound 247], the IC50 turned out to be 1 nM in the test with Miapaca2 3D spheroids; 1 nM in test [1]; 3 nM in test [2] (Homo sapiens, MIA PaCa-2, 2 h).

Turning to `CNC(=O)C#Cc1ccc2c(c1)[C@@H](N)C1(CCN(c3cc(=O)n(-c4ccc(F)c(OC)c4Cl)c(C)n3)CC1)C2` (atropisomer, axis not shown) [Compound 201], the IC50 was determined as 18 nM with Miapaca2 3D spheroids, 1 nM in test [1] and 6 nM in test [2] (2 hours).

Regarding `CNC(=O)C#Cc1ccc2c(c1)[C@@H](N)C1(CCN(c3nc(N)c(Sc4ccnc(N)c4Cl)nc3C)CC1)C2` [Compound 187], the IC50 in the test with Miapaca2 3D spheroids is 3 nM; in test [1], 1 nM; in test [2] (Homo sapiens, MIA PaCa-2, 2 h) it was 3 nM.

As to `C#Cc1ccc2c(c1)[C@@H](N)C1(CCN(c3cc(=O)n(-c4ccc(C#N)c(OC)c4Cl)c(C)n3)CC1)C2` [Compound 183], the 50% inhibitory concentration (IC50) in the test with Miapaca2 3D spheroids is 68 nM; in test [1], 2 nM; in test [2] (2 hours), 50 nM.

Regarding `CCNC(=O)C#Cc1ccc2c(c1)[C@@H](N)C1(CCN(c3cnc(N4CCCc5ncccc54)nn3)CC1)C2` [Compound 244], the concentration for half-maximal inhibition (IC50) amounted to 41 nM in the test on Miapaca2 3D spheroids; 11 nM in test [1]; 139 nM in test [2] (Homo sapiens, MIA PaCa-2, 2 h).

Turning to `CNC(=O)C#Cc1ccc2c(c1)[C@@H](N)C1(CCN(c3cnc(Sc4cc(N)nc(Cl)c4Cl)cn3)CC1)C2` [Compound 254], the IC50 with Miapaca2 3D spheroids was 10 nM; in test [1], 3 nM; in test [2] (Homo sapiens, MIA PaCa-2, 2 h), 11 nM.

For `C#Cc1ccc2c(c1)[C@@H](N)C1(CCN(c3ncc(Sc4ccnc(N)c4Cl)c(=O)n3CC)CC1)C2` [Compound 294], the IC50 came to 9 nM in the test with Miapaca2 3D spheroids; 1 nM in test [1]; 18 nM in test [2] (Homo sapiens, MIA PaCa-2, 2 h).

Consider `COc1nccc(Sc2nc(C)c(N3CCC4(CC3)Cc3ccc(C#CC(=O)N(C)C)cc3[C@H]4N)nc2N)c1Cl` [Compound 204], for which the IC50 in the test on Miapaca2 3D spheroids was determined as 121 nM; in test [1], 6 nM; in test [2] (Homo sapiens, MIA PaCa-2, 2 h), 54 nM.

Consider `COC(=O)C#Cc1ccc2c(c1)[C@@H](N)C1(CCN(c3cnc(Sc4ccnc(N)c4Cl)cn3)CC1)C2` [Compound 300], for which the IC50 in the test on Miapaca2 3D spheroids is 16 nM; in test [1], 1 nM; in test [2] (Homo sapiens, MIA PaCa-2, 2 h) it was 13 nM.

Turning to `CNC(=O)C#Cc1ccc2c(c1)[C@@H](N)C1(CCN(c3cnc(Sc4cc(N)nc(Cl)c4Cl)c(N)n3)CC1)C2` [Compound 253], the IC50 in the test with Miapaca2 3D spheroids is 2 nM; in test [1] it was 1 nM; in test [2] (Homo sapiens, MIA PaCa-2, 2 h), 10 nM.

Consider `CCNC(=O)C#Cc1ccc2c(c1)[C@@H](N)C1(CCN(c3cnc(Sc4cc(N)nc(Cl)c4Cl)cn3)CC1)C2` [Compound 256], for which the half-inhibitory concentration (IC50) stood at 6 nM in the test with Miapaca2 3D spheroids; 4 nM in test [1]; 12 nM in test [2] (Homo sapiens, MIA PaCa-2, 2 h).

Regarding `C#Cc1ccc2c(c1)[C@@H](N)C1(CCN(c3ncc(Sc4ccnc(N)c4Cl)c(=O)n3C)CC1)O2` [Compound 295], the IC50 in the test on Miapaca2 3D spheroids stood at 4 nM; in test [1], 2 nM; in test [2] (Homo sapiens, MIA PaCa-2, 2 h), 22 nM.

In the case of `CCNC(=O)C#Cc1ccc2c(c1)[C@@H](N)C1(CCN(c3cnc(Sc4cc(F)nc(N)c4Cl)cn3)CC1)C2` [Compound 273], the half-inhibitory concentration (IC50) in the test with Miapaca2 3D spheroids was determined as 2 nM; in test [1] it was 1 nM; in test [2] (Homo sapiens, MIA PaCa-2, 2 h), 5 nM.

Take `COCCN(C)C(=O)C#Cc1ccc2c(c1)[C@@H](N)C1(CCN(c3cnc(Sc4ccnc(N)c4Cl)cn3)CC1)C2` [Compound 301]: the 50% inhibitory concentration (IC50) in the test with Miapaca2 3D spheroids was 1 nM; in test [1], 0.4 nM; in test [2] (Homo sapiens, MIA PaCa-2, 2 h), 5 nM.

Consider `CNC(=O)C#Cc1ccc2c(c1)[C@@H](N)C1(CCN(c3cc(=O)n(-c4ccc(F)c(F)c4Cl)c(C)n3)CC1)C2` [Compound 202], for which the IC50 is 46 nM in the test on Miapaca2 3D spheroids, 1 nM in test [1] and 40 nM in test [2] (2 hours).

In general, IC50 refers to the concentration at which inhibition is half-maximal.
